US20080069899A1, “Pharmaceutical Compositions Comprising Beta-Carboline Derivatives and Use Thereof for the Treatment of Cancer” (priority 2004, published 2008)
Several values for one entry are separate records, joined by “and”; a condition that tells them apart may be missing. Identical values can stand only once. Counter-ions that a name gives are not always drawn. Like-named read-outs stand apart in the source and are kept apart here.

Key:
[1] = test system: HT29 human colon tumor cells; test: in vivo antineoplastic activity, NOD-SCID mice xenografted with HT29 human tumour cells
Procedure: (§1) The animal model chosen is that of severe combined immunodeficient (NOD-SCID) mice having received a xenograft of human tumor cells.
(§2) Male and female NOD-SCID mice, more than 3 months old, were raised in an environment of strict sterility, in an insulator ventilated with filtered air and sterilized, at 22° C. and 40% humidity, with a day-12 h/night-12 h cycle. The cages, feeding bottles and the water were sterilized in an autoclave at 120° C. for 30 minutes and the food as well as the bedding were treated with γ-irradiation. All handling took place in aseptic conditions under a laminar flow hood.
The mice were subjected to general anaesthesia by i.p. injection of 0.3 to 0.4 ml of hypnomidate at 2 mg/ml. 1×10^7 HT29 human colon tumor cells in suspension in 200 μl of PBS were then injected sub-cutaneously, into the backs of the mice. […]
50 mg of 5-fluorouracil (Sigma) were dissolved in 8 ml of water and the solution obtained was sterilized by filtration on a membrane with 0.22 μm porosity. […]

[2] = Procedure: as §1, §2
150 mg of cyclophosphamide (Sigma) were dissolved in 8 ml of water and the solution obtained was sterilized by filtration on a membrane with 0.22 μm porosity.
50 mg of 5-fluorouracil (Sigma) were dissolved in 8 ml of water and the solution obtained was sterilized by filtration on a membrane with 0.22 μm porosity.
100 mg of dihydrated harmalacidine hydrochloride were dissolved in 8 ml of water and the solution obtained was sterilized by filtration on a membrane with 0.22 μm porosity. The mice received either 25, 50, or 100 mg/kg/day of harmalacidine alone, or a mixture of 25 or 50 mg/kg/day of harmalacidine+50 mg/kg/day of cyclophosphamide.

[3] = test system: HBMEC (immortalized human bone marrow endothelial cell lines); test: in vitro cytotoxicity test (neutral red, 96-well microplate); format: cell-based; conditions: 96 h, incubation 4 days
Procedure: (§3) The cytotoxic effects of the different alkaloid extracts of P. harmala were studied on several cell lines: • human leukemia cell lines: K562 and Jurkat (leukemia), U937 (myeloma), • human solid tumor cell lines: KB (epithelioma of the nasopharynx) and HT29 (colon), • immortalized human bone marrow endothelial cell lines: HBMEC.
(§4) The cells are cultured in an oven under a 5% CO2 atmosphere and at 37° C., in RPMI 1640 medium for K562, Jurkat, U937 and HT29 and DMEM for KB, supplemented with 10% foetal calf serum, 0.01% penicillin-streptomycin and L-glutamine 2 mM and in EGM2 medium for the HBMEC cells.
(§5) The cytotoxicity test is carried out in a 96-well microplate in the presence of the extract to be tested at varying concentrations of 40, 20, 10, 5, 1, 0.5 μg/ml and in the absence of product, after incubation for 4 days at 37° C. On the 3rd day, a solution of neutral red is added which is absorbed by living cells. The optical density (OD) of dye released by lyzed cells is measured at 540 nm by an Elisa plate reader. The toxicity (% inhibition of growth) is inversely proportional to the optical density.
(§6) The percentage of inhibition is defined as being the difference between the OD without product and the OD in the presence of product compared to the OD without product.
(§7) The concentration inhibiting 50% of cell growth is obtained from the curve representing the percentage of inhibition as a function of the logarithm of the concentration.

Jurkat (leukemia) = test: as above; format: cell-based; conditions: Homo sapiens, 96 h, incubation 4 days
Procedure: as §3, §4, §5, §6, §7

K562 (leukemia) = test: as above; format: cell-based; conditions: Homo sapiens, incubation 4 days
Procedure: as §3, §4, §5, §6, §7

[4] = test system: KB (epithelioma of the nasopharynx); test: as above; format: cell-based; conditions: Homo sapiens, 96 h, incubation 4 days
Procedure: as §3, §4, §5, §6, §7

U937 (myeloma) = test: as above; format: cell-based; conditions: Homo sapiens, U-937, 96 h, incubation 4 days
Procedure: as §3, §4, §5, §6, §7

[5] = test system: malignant and endothelial cells tested; test: summary of in vitro cytotoxicity over all lines tested; format: cell-based, human; conditions: range over the cell lines, read-out: IC50 vis-à-vis malignant and endothelial cells tested
Procedure: as §3, §4, §5, §6, §7
To summarize, the IC50 vis-à-vis malignant and endothelial cells tested is the following: […]

Compound: O=c1[nH]cc(F)c(=O)[nH]1 [5-fluorouracil]
- Average volume of the tumours of the treated mice compared to the average volume of the tumours of the non-treated mice (T/C) (%) ([1]; 5-fluorouracil 3 mg/kg/day alone per os, Day 15): 43%
- Average volume of the tumours of the treated mice compared to the average volume of the tumours of the non-treated mice (T/C) (%) ([1]; 5-fluorouracil 3 mg/kg/day alone per os, Day 30): 56%
- Average volume of the tumours of the treated mice compared to the average volume of the tumours of the non-treated mice (T/C) (%) ([1]; 5-fluorouracil 3 mg/kg/day alone per os, Day 40): 66%
- Average volume of the tumours of the treated mice compared to the average volume of the tumours of the non-treated mice (T/C) (%) ([1]; 5-fluorouracil 3 mg/kg/day alone per os, Day 50): 61%
- Average volume of the tumours of the treated mice compared to the average volume of the tumours of the non-treated mice (T/C) (%) ([1]; 5-fluorouracil 3 mg/kg/day alone per os, Day 60): 86%
- Average volume of the tumours of the treated mice compared to the average volume of the tumours of the non-treated mice (T/C) (%) ([1]; 5-fluorouracil 6 mg/kg/day alone per os, Day 15): 37%
- Average volume of the tumours of the treated mice compared to the average volume of the tumours of the non-treated mice (T/C) (%) ([1]; 5-fluorouracil 6 mg/kg/day alone per os, Day 30): 53%
- Average volume of the tumours of the treated mice compared to the average volume of the tumours of the non-treated mice (T/C) (%) ([1]; 5-fluorouracil 6 mg/kg/day alone per os, Day 40): 60%
- Average volume of the tumours of the treated mice compared to the average volume of the tumours of the non-treated mice (T/C) (%) ([1]; 5-fluorouracil 6 mg/kg/day alone per os, Day 50): 64%
- Average volume of the tumours of the treated mice compared to the average volume of the tumours of the non-treated mice (T/C) (%) ([1]; 5-fluorouracil 6 mg/kg/day alone per os, Day 60): 70%
- Average volume of the tumours of the treated mice compared to the average volume of the tumours of the non-treated mice (T/C) (%) ([1]; 5-fluorouracil 9 mg/kg/day alone per os, Day 15): 41%
- Average volume of the tumours of the treated mice compared to the average volume of the tumours of the non-treated mice (T/C) (%) ([1]; 5-fluorouracil 9 mg/kg/day alone per os, Day 30): 41%
- Average volume of the tumours of the treated mice compared to the average volume of the tumours of the non-treated mice (T/C) (%) ([1]; 5-fluorouracil 9 mg/kg/day alone per os, Day 40): 59%
- Average volume of the tumours of the treated mice compared to the average volume of the tumours of the non-treated mice (T/C) (%) ([1]; 5-fluorouracil 9 mg/kg/day alone per os, Day 50): 52%
- Average volume of the tumours of the treated mice compared to the average volume of the tumours of the non-treated mice (T/C) (%) ([1]; 5-fluorouracil 9 mg/kg/day alone per os, Day 60): 59%
- Average volume of the tumours of the treated mice compared to the average volume of the tumours of the non-treated mice (T/C) (%) ([1]; 5-fluorouracil 12 mg/kg/day alone per os, Day 15): 73%
- Average volume of the tumours of the treated mice compared to the average volume of the tumours of the non-treated mice (T/C) (%) ([1]; 5-fluorouracil 12 mg/kg/day alone per os, Day 30): 66%
- Average volume of the tumours of the treated mice compared to the average volume of the tumours of the non-treated mice (T/C) (%) ([1]; 5-fluorouracil 12 mg/kg/day alone per os, Day 40): 54%
- Average volume of the tumours of the treated mice compared to the average volume of the tumours of the non-treated mice (T/C) (%) ([1]; 5-fluorouracil 12 mg/kg/day alone per os, Day 50): 47%
- Average volume of the tumours of the treated mice compared to the average volume of the tumours of the non-treated mice (T/C) (%) ([1]; 5-fluorouracil 12 mg/kg/day alone per os, Day 60): 59%
- T/C ([1]; 5-fluorouracil 24 mg/kg/d, alternating 6 days of treatment and 6 days of rest, until the 20th day of the treatment): 17%
- Average volume of the tumours of the treated mice compared to the average volume of the tumours of the non-treated mice (T/C) (%) ([1]; 5-fluorouracil 24 mg/kg/day alone, alternating 6 days of treatment and 6 days of rest, Day 15): 17%
- Average volume of the tumours of the treated mice compared to the average volume of the tumours of the non-treated mice (T/C) (%) ([1]; 5-fluorouracil 24 mg/kg/day alone, alternating 6 days of treatment and 6 days of rest, Day 30): 54%
- Average volume of the tumours of the treated mice compared to the average volume of the tumours of the non-treated mice (T/C) (%) ([1]; 5-fluorouracil 24 mg/kg/day alone, alternating 6 days of treatment and 6 days of rest, Day 40): 54%
- day of administration at which the dose becomes lethal ([2]; both, NOD-SCID, mouse, in vivo): 35 to 45 days

Compound: CC[C@@]1(O)C(=O)OCc2c1cc1n(c2=O)Cc2cc3ccccc3nc2-1 [Camptothecin, reference compound]
- IC50 [3]: 0.025 µg/mL and 70 nM
- IC50 (Jurkat (leukemia)): 0.003 µg/mL and 90 nM
- IC50 (K562 (leukemia); 96 h): 0.014 µg/mL and 40 nM
- IC50 [4]: 0.035 µg/mL and 100 nM
- IC50 (U937 (myeloma)): 0.023 µg/mL and 70 nM

Compound: O=C1NCCc2c1[nH]c1cc(O)ccc21 [Demethyl-harmalacidine (D), demethyl harmalacidine]
- IC50 [3]: 17 µg/mL and 84.1 µM
- IC50 (Jurkat (leukemia)): 8.5 µg/mL and 42 µM
- IC50 (K562 (leukemia); K562, 96 h): 20 µg/mL and 99 µM
- IC50 [4]: 10 µg/mL and 49.5 µM

Compound: COc1ccc2c(c1)[nH]c1c(C)nccc12 [Harmine•HCl•2H2O, dihydrated harmine hydrochloride]
- IC50 ([5]; hydrochloride): 10.5 to 35 µM

Compound: OC1CCN2Cc3ccccc3N=C12 (centres unmarked) [Peganine (B), Peganine]
- IC50 (Jurkat (leukemia)): 75 µg/mL and 399 µM
- IC50 (K562 (leukemia); K562, 96 h): 35 µg/mL and 186 µM
- IC50 [4]: > 50 µg/mL and > 266 µM

Compound: O=P1(N(CCCl)CCCl)NCCCO1 (centres unmarked) [cyclophosphamide]
- Average volume of the tumours of the treated mice compared to the average volume of the tumours of the non-treated mice (T/C) (%) ([1]; cyclophosphamide 50 mg/kg/day alone, Day 15): 63%
- Average volume of the tumours of the treated mice compared to the average volume of the tumours of the non-treated mice (T/C) (%) ([1]; cyclophosphamide 50 mg/kg/day alone, Day 30): 42%
- Average volume of the tumours of the treated mice compared to the average volume of the tumours of the non-treated mice (T/C) (%) ([1]; cyclophosphamide 50 mg/kg/day alone, Day 40): 37%
- Average volume of the tumours of the treated mice compared to the average volume of the tumours of the non-treated mice (T/C) (%) ([1]; cyclophosphamide 50 mg/kg/day alone, Day 50): 36%
- Average volume of the tumours of the treated mice compared to the average volume of the tumours of the non-treated mice (T/C) (%) ([1]; cyclophosphamide 50 mg/kg/day alone, Day 60): 32%
- Average volume of the tumours of the treated mice compared to the average volume of the tumours of the non-treated mice (T/C) (%) ([1]; cyclophosphamide 100 mg/kg/day alone, Day 15): 47%
- Average volume of the tumours of the treated mice compared to the average volume of the tumours of the non-treated mice (T/C) (%) ([1]; cyclophosphamide 100 mg/kg/day alone, Day 30): 25%
- Average volume of the tumours of the treated mice compared to the average volume of the tumours of the non-treated mice (T/C) (%) ([1]; cyclophosphamide 100 mg/kg/day alone, Day 40): 18%
- Average volume of the tumours of the treated mice compared to the average volume of the tumours of the non-treated mice (T/C) (%) ([1]; cyclophosphamide 100 mg/kg/day alone, Day 50): 14%
- Average volume of the tumours of the treated mice compared to the average volume of the tumours of the non-treated mice (T/C) (%) ([1]; cyclophosphamide 100 mg/kg/day alone, Day 60): 15%
- Average volume of the tumours of the treated mice compared to the average volume of the tumours of the non-treated mice (T/C) (%) ([1]; cyclophosphamide 150 mg/kg/day alone, Day 15): 4%
- tolerance of the dose ([2]; cyclophosphamide 150 mg/kg/day alone, all died around the 15th day of treatment): did not tolerate

Compound: CC[C@]1(O)C[C@@H]2CN(CCc3c([nH]c4ccccc34)[C@@](C(=O)OC)(c3cc4c(cc3OC)N(C)[C@H]3[C@@](O)(C(=O)OC)[C@H](OC(C)=O)[C@]5(CC)C=CCN6CC[C@]43[C@@H]65)C2)C1 [vinblastine, reference compound]
- antineoplastic activity ([1]; vinblastine between 0.125 and 0.5 mg/kg/day, sub-cutaneous administration, until the 40th day): dose-dependent
- tolerance of the dose ([2]; mouse, in vivo): not tolerated

Compound: dihydrated harmalacidine hydrochloride
- IC50 [5]: 34.4 to 134 µM
